Reference: article PMC3901259, “Characterisation of the Metabolites of 1,8-Cineole Transferred into Human Milk: Concentrations and Ratio of Enantiomers” (Metabolites, 2013)

Experiments:
[1] = Quantification of 1,8-cineole metabolites in human milk (SAFE, GC-MS, internal standard and matrix calibration) after oral intake of 100 mg 1,8-cineole; type: in vivo; conditions: for Absolute concentration in human milk: oral 100 mg 1,8-cineole, single determination
From the text: Human milk samples were provided voluntarily by breastfeeding mothers after intake of the non-prescription pharmaceutical Soledum® (Klosterfrau Healthcare Group, Cologne, Germany). Before the beginning of the study, the participants were informed verbally, as well as in written form, about the study procedure and purpose and they were told that withdrawing from the study was possible at any time without giving any reason. All volunteers gave written consent to the analysis of their milk samples and anonymous publication of the resulting data. The Ethical Committee of the Medical Faculty, University Erlangen-Nuremberg, approved the experimental procedures. Each participant was handed a copy of the Soldeum® package instructions and was advised to read it before capsule intake. They were also advised to withdraw from the study if any negative reactions such as medication allergies or interactions with other drugs they were taking were to be expected. Additionally, the volunteers were informed verbally about potential effects of the pharmaceutical preparation on breastfeeding, i.e. the risk of an altered milk flavour and rejection of the milk by the nursling. Accordingly, if this would happen, the mothers were recommended to feed their babies with stored human milk or formula milk products.
The milk donors were between the ages of 29 and 40 years (mean 34 years). During their participation in the study, their breast milk production had to be normal and in excess of their infants' needs, with no breast infections and no overall medical complaints present. Five participants were primiparous, three were multiparous and the breast milk samples were from 19 weeks to 19 months postpartum. For sampling, either electrical or mechanical breast pumps or manual expression techniques were applied, resulting in sample volumes between 10 and 100 mL. The samples were immediately subjected to sample preparation after a maximum storage time of five hours at 7 °C or were stored in a freezer at −20 °C for up to five days.
The participating volunteers were asked to ingest one Soledum® capsule, containing 100 mg 1,8-cineole, and to wait until they themselves or another person began to notice the eucalyptus-like odour on their breath. […] The donors were instructed to keep notes on the dates of capsule intake, first eucalyptus-like odour on their breath and exact sampling time. Unfortunately it was difficult for some mothers to detect the smell on their breath so they expressed the samples after some time without having noticed the smell, or reported having been unsure about the smell. […] Some of the donors repeated the whole experiment and some expressed more than one sample after the capsule intake, resulting in 14 samples in total, from 8 different mothers.
Extracts containing the volatile fraction of the human milk samples were prepared by Solvent Assisted Flavour Evaporation (SAFE) after addition of deuterated 1,8-cineole as internal standard (solution in dichloromethane), followed by 10 min of stirring, then another addition of dichloromethane (50% v/v), and 30 min of stirring. The resulting stable phase was distilled in the SAFE-apparatus at 50 °C and approximately 1x10^−4 mbar. The volatile fraction of the samples was frozen with liquid nitrogen. After thawing, it consisted of two phases, formed by the dichloromethane and by the water out of the milk. The water phase was extracted three times with dichloromethane, and the solvent phases were combined and dried over anhydrous Na2SO4. Finally the sample extracts were concentrated by microdistillation according to Bemelmans at 50 °C to a total volume of 50 to 200 μL.
For GC-MS analyses, an Agilent MSD quadrupole system (GC 7890A with MSD 5975C, Agilent Technologies, Waldbronn, Germany) coupled with a CIS 4C (cooled injection system) and an MPS 2 auto-sampler (Gerstel GmbH & Co. KG, Duisburg, Germany) were used. […]

[2] = Determination of the ratios of enantiomers of chiral metabolites in human milk on chiral GC capillaries; type: in vivo; conditions: B-2b, B-2c of the same parent
From the text: The separation of the chiral metabolites of 1,8-cineole was successfully achieved using different β- or γ-cyclodextrin-based stationary phases (Rt-bDEXsa, Rt-bDEXse, Rt-bDEXsm and Rt-yDEXsa) for gas chromatographic analysis. Table S1, in the supplementary material, lists the usable separation phases and the respective retention indices (determined according to van den Dool and Kratz) for each pair of enantiomers. It was therefore decided to use the following capillaries for the analysis of the human milk samples: Rt-bDEXsm for separation of 2,3-dehydro-, α2,3-epoxy-, 2-oxo-, 3-oxo- and 9-hydroxy-1,8-cineole, and Rt-yDEXsa for separation of α2-hydroxy-, α3-hydroxy- and β2-hydroxy-1,8-cineole, under the GC conditions described in the experimental section.
For GC-MS analyses, an Agilent MSD quadrupole system (GC 7890A with MSD 5975C, Agilent Technologies, Waldbronn, Germany) coupled with a CIS 4C (cooled injection system) and an MPS 2 auto-sampler (Gerstel GmbH & Co. KG, Duisburg, Germany) were used. Data collection and analysis were performed with the MSD ChemStation E.02.00.493 (Agilent Technologies, Inc.) software. Quantification experiments were carried out on DB-FFAP and DB-5 capillaries (30 m length, 0.25 mm inner diameter, 0.25 µm film thickness, Agilent J&W GC Columns, USA), and for monitoring of the ratio of enantiomers the chiral capillaries Rt-bDEXsa, Rt-bDEXse, Rt-bDEXsm and Rt-yDEXsa (30 m length, 0.32 mm inner diameter, 0.25 µm film thickness, Restek GmbH, Bad Homburg, Germany) were utilised. Pre-columns of uncoated, deactivated fused silica (0.53 mm inner diameter, 0.5 to 3.5 m length) were used to ensure that no potentially present low-volatile residues could contaminate the analytical capillaries. The temperature programme of the column oven was as follows: 40 °C for 2 min, 4 °C/min up to 170 °C, 40 °C/min up to 230 °C (Rt-DEX capillaries), 240 °C (DB-FFAP) and 250 °C (DB-5), respectively, and hold time at end temperature of 5 to 10 min. As carrier gas, helium was used at a flow rate of 1.3 mL/min (velocity 41.1 cm/s). Injection of 1 or 2 µL was performed by the auto-sampler.
For the separation of the pairs of enantiomers of the chiral metabolites of 1,8-cineole, four different capillaries (Rt-bDEXsa, Rt-bDEXse, Rt-bDEXsm, and Rt-yDEXsa) were evaluated for optimisation of the peak-to-peak resolution of the enantiomers by injecting a mixture of all the metabolites in a dichloromethane solution and by varying the heating rate. Besides the separation of each pair of enantiomers from each other, it was also important to confirm that no other metabolite coeluted with any one of the enantiomers, because the milk samples would most probably contain all metabolites. Moreover, the separation conditions for the mixture of reference substances were also tested on some human milk sample extracts and modified accordingly, where necessary, to avoid coelution with interfering matrix compounds.
For calculation of the ratio of enantiomers (that is, the relative abundance of each enantiomer to the not separated mixture of enantiomers), the peak area of each enantiomer was divided by the sum of the peak areas of both enantiomers and multiplied by 100. With the known concentrations of the chiral metabolites in each milk sample, the absolute concentration of each single enantiomer was also calculated by multiplying the concentration with the respective percentage.

[3] = design: method as in PMID 20425757; conditions: one volunteer, sage tea, overall intake 1.02 mg 1,8-cineole; cited from earlier work
[4] = design: method as in doi:10.1002/cplu.201200253; conditions: urine after 100 mg 1,8-cineole; cited from earlier work
[5] = sample A-1b (odour yes), values given with (<x) are approximations
[6] = sample B-1 (odour yes), values given with (<x) are approximations
[7] = sample B-2b (odour yes), values given with (<x) are approximations
[8] = sample D-2 (odour yes), values given with (<x) are approximations
[9] = sample E-2 (odour yes), values given with (<x) are approximations
[10] = sample G (odour yes), values given with (<x) are approximations
[11] = sample H (odour yes), values given with (<x) are approximations
[12] = sample D-1 (no odour), values given with (<x) are approximations

| Compound | Estimated maximum level in human milk (concentration calculated with the last calibration point, in parentheses) ([1]; sample A-1b (odour yes)) [µg/kg] | Absolute concentration in human milk [1, 5] [µg/kg] | Estimated maximum level in human milk (concentration calculated with the last calibration point, in parentheses) ([1]; sample B-1 (odour yes)) [µg/kg] | Absolute concentration in human milk [1, 6] [µg/kg] | Absolute concentration in human milk [1, 7] [µg/kg] | Absolute concentration in human milk ([1]; sample B-2c (no odour)) [µg/kg] | Estimated maximum level in human milk (concentration calculated with the last calibration point, in parentheses) ([1]; sample D-2 (odour yes)) [µg/kg] | Absolute concentration in human milk [1, 8] [µg/kg] | Absolute concentration in human milk [1, 9] [µg/kg] | Estimated maximum level in human milk (concentration calculated with the last calibration point, in parentheses) ([1]; sample G (odour yes)) [µg/kg] | Absolute concentration in human milk [1, 10] [µg/kg] | Estimated maximum level in human milk (concentration calculated with the last calibration point, in parentheses) ([1]; sample H (odour yes)) [µg/kg] | Absolute concentration in human milk [1, 11] [µg/kg] | Concentration in plasma [3] | Estimated maximum level in human milk (concentration calculated with the last calibration point, in parentheses) ([1]; sample B-2b (odour yes)) [µg/kg] | Absolute concentration in human milk [1, 12] [µg/kg] | further results |
| --- | --- | --- | --- | --- | --- | --- | --- | --- | --- | --- | --- | --- | --- | --- | --- | --- | --- |
| CC12CCC(CC1)C(C)(CO)O2 (stereo not drawn) [9-hydroxy-1,8-cineole] | < 1.08 | 0.46 | < 1.57 | 0.87 | 15.52 | 0.15 | < 1.82 | 0.46 | 16.95 | < 3.33 | 0.73 | < 1.86 | 1.83 | 5.61 ng/mL | – | – | Absolute concentration in human milk ([1]; sample B-2a (no odour)): 0.18 µg/kg; Percentage E1 ([2]; one of the three samples B-2a): about 80%; Percentage E1 ([2]; the two other samples of B-2a): about 50% |
| CC1(C)OC2(C)CCC1C1OC12 (stereo not drawn) [a2,3-epoxy-1,8-cineole, α2,3-epoxy-1,8-cineole] | – | 2.48 | – | 7.65 | 2.18 | 0.66 | – | 4.13 | 4.65 | – | 4.52 | – | 6.82 | – | < 2.45 | 1.35 | Presence in human urine [4]: could not be found |
| CC12CCC(C(O)C1)C(C)(C)O2 (stereo not drawn) [a3-hydroxy-1,8-cineole, α3-Hydroxy-1,8-cineole] | < 1.14 | 0.77 | < 1.65 | 1.06 | 0.54 | 0.05 | < 1.92 | 0.41 | 0.96 | < 3.51 | 0.72 | < 1.96 | 1.53 | below the limit of quantitation | < 2.07 | 0.03 | Estimated maximum level in human milk (concentration calculated with the last calibration point, in parentheses) ([1]; sample C (no odour)): < 0.96 µg/kg; Absolute concentration in human milk ([1]; sample C (no odour; very weak odour not caused by 1,8-cineole), values given with (<x) are approximations): 0.05 µg/kg; Estimated maximum level in human milk (concentration calculated with the last calibration point, in parentheses) ([1]; sample D-1 (no odour)): < 1.06 µg/kg; Estimated maximum level in human milk (concentration calculated with the last calibration point, in parentheses) ([1]; sample E-2 (odour yes)): < 1.78 µg/kg |
